Consider 4 compounds from PMC10299588, “Bromotyrosine-Derived Metabolites from a Marine Sponge Inhibit Pseudomonas aeruginosa Biofilms” (International Journal of Molecular Sciences, 2023).

Common to all, as to format: cell-based, Pseudomonas aeruginosa
The subject of data set [1] is planktonic P. aeruginosa PAO1. Briefly: Minimum inhibitory concentration (MIC) determination. The settings on record: Pseudomonas aeruginosa; planktonic (free-living) PAO1, LB medium, 18 h, 37 °C. As for the experimental part:
The minimum inhibitory concentration (MIC) of compounds and antibiotics were performed as previously described, with minor modification. […] Three antibiotics, including tobramycin, ciprofloxacin, and meropenem, were dissolved in water and filter sterilized. Ten microliters of two-fold serially diluted antibiotics were transferred to a 96-well Costar plate (Corning Inc., Corning, MA, USA) followed by the addition of 90 µL of diluted cultures. After an 18-h incubation at 37 °C in the static condition, optical density OD600 was monitored using a Synergy 2 microplate reader (BioTek, Winooski, VT, USA). […] The MIC was determined as the lowest concentrations of antibiotics that inhibit complete bacterial growth compared to growth control.

Data set [2] relates to PAO1ΔpslA (Psl deletion mutant). Briefly: Biofilm inhibition assay (OD600 growth and resazurin biofilm viability). As for the experimental part: (§1) Figure 2 Biofilm assays to identify compounds that prevent biofilm formation. Biofilm inhibition assay. P. aeruginosa cultures were seeded into 384-well plates after dispensing compounds and antibiotics. The plates were incubated for 24 h at 37 °C followed by recording bacterial growth (OD600) and measuring the viability of biofilm bacteria using resazurin.
(§2) The overnight cultures at 37 °C in LB medium were washed once with sterile saline 0.9% (w/v) and adjusted to an OD600 of 0.05, and 1% inoculum was transferred into a fresh LB medium. Following incubation at 37 °C, 200 rpm for 6–6.5 h to reach the mid-log phase, the cells were washed once with sterile saline 0.9% and diluted to an OD600 of 0.01. Then, 45 µL aliquots were dispensed into 384-well plates (Greiner Bio-One, Kremsmünster, Austria, catalog no. 781091). In biofilm inhibition assays, test compounds (5 µL) were loaded prior to the addition of bacteria. The plates were incubated for 24 h at 37 °C in static conditions. The effects of compounds on bacterial growth and viability of biofilm bacteria were determined by the OD600 and resazurin metabolic assay, respectively. The final concentrations of DMSO in the assays were 1–2%. The negative controls or untreated cultures consisted of inoculum and different concentrations of DMSO. Antibiotic ciprofloxacin (0.25 µg/mL and 25 µg/mL) was used as positive controls. The initial OD600 and final OD600 were read before incubation at 37 °C and after 24 h incubation, respectively, followed by assessment of biofilm viability by resazurin metabolic assay. The experiments were carried out with three technical replicates and repeated at least twice. The growth inhibition was calculated as a function of the percentage of the total bacterial inhibition using Equation (1), where AB is the OD600 of LB medium, and AT0 and ATf are the OD600 recorded at inoculating time and at the end of the assay. (1) % Inhibition=100 × [ 1 − [OD600 (Asample Tf− Asample T0)−(AB Tf − AB T0)/OD600 (Anegative control Tf− Anegative control T0)−(AB Tf − AB T0)]]
(§3) Resazurin sodium salt (Sigma-Aldrich, St. Louis, MI, USA) was dissolved in Milli-Q water at 0.2% (w/v) and filter sterilized. The solution was stored at −20 °C in the dark. The assay was performed as previously described with modification. The cultures were withdrawn, and the plates were washed three times with sterile water using the plate washer (BioTek). To remove the remaining water in the wells, the plates were tapped with autoclaved paper towels. An amount of 50 µL of diluted RSZ solution in LB medium was added into each well, followed by incubation at 37 °C for 5–6 h. A microplate reader (BioTek Synergy 2) was used to measure the fluorescence intensity (excitation 530 nm, emission 590 nm). Data collected were determined as a function of fluorescence percentage using Equation (2), where FB is the fluorescence of the diluted RSZ solution in LB medium in the absence of P. aeruginosa cells. (2) % Inhibition=[(Fnegative control −FB )−(Fsample −FB )/(Fnegative control − FB )]×100
On the technique in general: The colour change of resazurin is a common sign of viable cells or microbes.

Data set [3] deals with PAO1ΔpelF (Pel deletion mutant). The data set is described as above. To be noted: ciprofloxacin alone, sub-MIC. As for the experimental part:
as §1, §2, §3

In data set [4] the test system is PAO1ΔpelF biofilms. As for the experimental part: (§4) Biofilms of wild-type PAO1 and isogenic biofilm matrix component mutants were treated with ianthelliformisamines or ciprofloxacin alone and the combinations. Their biofilms were simultaneously stained with SYTO9 (green) and propidium iodide (red). Cells with intact membranes were stained green, while cells with compromised membranes were stained red.
(§5) For biofilm bacteria imaging, bacteria were cultured, treated with test compounds, and washed, as previously mentioned in the biofilm inhibition assay. The biofilm bacteria were stained using a LIVE/DEAD BacLight bacterial viability kit (Molecular Probes, Inc., Eugene, OR, USA), which consists of SYTO9 (green; staining cells with intact membrane) and propidium iodide (red; staining cells with compromised membrane). Images were captured using a high-content imaging system Operetta CLS (Perkin Elmer, Waltham, MA, USA) with a 60× water-immersion objective.

In data set [5] the test system is DNA damage reporter strain MDM-623. Briefly: Cellular bioluminescent assay (DNA damage reporter). To be noted: 8 h; ciprofloxacin at 0.0625, 0.083, 0.25 and 25 µg/mL. The source says: Ciprofloxacin, a fluroquinolone antibiotic, has been extensively utilized to treat various bacterial infections. It targets bacterial DNA topoisomerase and DNA gyrase, which produce breakage of double-stranded DNA, ultimately leading to cell death. […] In the effort of identifying the mechanisms of action of test compounds, we employed a DNA damage reporter strain MDM-623, which was constructed based on the promoter-luciferase reporter gene. The increased luminescence readouts are indicative of gyrase inhibition-induced promoter upregulation through the recA pathway. […] Nevertheless, there was no difference in the response of MDM-623 upon exposure to test compounds and the solvent (Figure 5E). The above results may imply that test compounds are unlikely to be DNA gyrase inhibitors and that their mechanism of action is unrelated to that of ciprofloxacin.
The reporter strain MDM-623 was kindly provided by Dr. Timothy Opperman (Microbiotix, Inc., Worcester, MA, USA). The strain harbors a promoter region from PA0614 fused to Photorhabdus luminescens luciferase luxCDABE operon, which was constructed to respond to DNA damage. All experiments were carried out as previously described with minor modification. […] Luminescence was monitored using a BioTek Synergy H1 Hybrid microplate reader for 8 h at 30-min intervals. […]

In data set [6] the test system is PDO300Δalg8 biofilms. Briefly: Fluorescence microscopy of biofilms (SYTO9/propidium iodide). As for the experimental part: as §4, §5
In data set [7] the test system is PAO1 biofilms. The description is as above. As for the experimental part:
as §4, §5

Data set [8] deals with PAO1ΔpslA biofilms. The description is as above. The settings on record: alone. As for the experimental part: as §4, §5
The test system of data set [9] is PDO300 biofilms. Described as above. As for the experimental part:
as §4, §5

For data set [10], the system named is outer membrane of wild-type PAO1 cells. Briefly: NPN uptake assay (outer membrane permeability). The settings on record: PAO1 pre-treated with 100 µM CCCP, 30 min; polymyxin B at 6.4 and 10 µg/mL. As for the experimental part: The effect of ianthelliformisamines on the permeability of the outer membrane was determined using an NPN uptake assay. NPN (1-N-phenylnapthylamine), a hydrophobic fluorescent probe, is excluded from the intact outer membranes of Gram-negative bacteria such as P. aeruginosa. It intensely fluoresces once it gains access to the phospholipid layer of membrane-compromised cells (Figure 5A). The experiments were conducted with different concentrations of ianthelliformisamines and sub-inhibitory doses of ciprofloxacin. […] The level of fluorescence intensity in bacteria challenged with test compounds, even at highest testing concentrations, resembled that in cells treated with DMSO.
The permeability of the outer membrane upon exposure to test compounds was assessed using a 1-N-phenylnapthylamine (NPN) uptake assay. An overnight culture of PAO1 was grown to an OD600 of 0.5, centrifuged, washed with HEPES buffer (5 mM, pH 7.2), and re-suspended in HEPES buffer containing 100 µM CCCP. […] Ninety microliters of the cell suspension were added to the flat-bottomed, black 96-well plate containing 10 µL of test compounds, and the NPN fluorescence was immediately monitored using a BioTek Synergy H1 Hybrid microplate reader at an excitation of 350 nm and an emission of 420 nm every min for 30 min. […]

In general, MIC refers to the least concentration at which growth counts as inhibited.

Entries after “also recorded” stand apart in the source; their conditions may differ. Where only a bound is given, the exact number is not on record here.

For the compound `O=C(O)c1cn(C2CC2)c2cc(N3CCNCC3)c(F)cc2c1=O` [ciprofloxacin, reference compound], the minimum inhibitory concentration (MIC) in data set [1] was determined as 0.25 µg/mL. For the same compound, the bacterial growth inhibition entry in data set [2] (alone at 1/3 MIC) is reported as “moderately inhibited”. For the same compound, in data set [2] (alone at 1/3 MIC), the “prevention of biofilm formation” value is reported as “completely prevented”. Moreover, in data set [2] (alone at 1/3 and 1/4 MIC), the “reduction of bacterial growth” value is recorded as greater than 40%. Further, the “suppression of biofilm formation” value in data set [2] (alone at 1/3 and 1/4 MIC) is listed as ~ 100%. Further, the “effect on survival of suspended cells” value in data set [2] (sub-lethal doses (1/3, 1/4 MIC) alone) is ~ 50%. For the same compound, in data set [3], the “biofilm response (reduction)” value is recorded as ~ 60%. Moreover, the cell phenotype result in data set [4] was “long, filamentous phenotypes as well as small, round spheroplasts”; in [6], “long, filamentous phenotypes as well as small, round spheroplasts”; in [7] it was “long, filamentous phenotypes as well as small, round spheroplasts”; in data set [9], “long, filamentous phenotypes as well as small, round spheroplasts”. Moreover, the “luminescence response of DNA damage reporter (gyrase inhibition)” value in [5] was “steadily enhanced”. Further, the biofilm after treatment entry in data set [8] is listed as “unable to form biofilms; also recorded: eradicated”.
As to `C[C@@H](O)[C@H]1C(=O)N2C(C(=O)O)=C(S[C@@H]3CN[C@H](C(=O)N(C)C)C3)[C@H](C)[C@H]12` [meropenem, reference compound], the MIC in [1] came to 0.375 µg/mL.
As for `NC[C@H]1O[C@H](O[C@H]2[C@H](O)[C@@H](O[C@H]3O[C@H](CO)[C@@H](O)[C@H](N)[C@H]3O)[C@H](N)C[C@@H]2N)[C@H](N)C[C@@H]1O` [tobramycin, reference compound], the MIC in data set [1] was determined as 2 µg/mL.
With polymyxin B, the “outer membrane permeabilization (NPN fluorescence)” value in data set [10] is reported as “prominent fluorescence”.
